US7235584B2, “Non-psychotropic cannabinoids” (Pharmos Corporation, priority 2000, dated 2007)

Assays:
[1] = test system: cannabimimetic activity; settings: doses several thousand times higher than the ED50 of HU-210; cited from earlier work
[2] = test system: MPTP-mouse model of Parkinson's disease; test: MPTP model of Parkinson's disease, TH-IR neurons in SNpc; format: in vivo, C57/BL mice; settings: seven days after MPTP
Experimental: MPTP-induced model of Parkinson's Disease (PD) in mice is used to evaluate the value of the novel PRS-211 compounds as therapeutic agents for PD.
The MPTP-mouse model of Parkinson's disease is used to test the efficacy of the compounds to prevent the onset of PD symptoms.
The protocol is based on Liberatore et al. (Liberatore, Jackson-Lewis, Vukosavic, Mandir, Vila , McAuliffe, Dawson, Dawson and Przedborski, Nature Medicine 5:1403–9, 1999).
The treatment groups are as follows: • Vehicle 5 ml/kg IP once just before MPTP administration. • Dexanabinol or analog 10 mg/kg IP once just before MPTP administration. • Dexanabinol or analog 20 mg/kg IP once just before MPTP administration. • Dexanabinol or analog 20 mg/kg IP once just before MPTP administration+additional dose 24 hours later.
Seven days after MPTP administration the mice were euthanized and their brains removed cut and stained using an antiserum to tyrosine hydroxylase (TH-IR), the rate limiting enzyme in monoamainergic neurons. Attention was focused on the Substantia nigra, pars compacta (SNpc), which are comprise of dompaminergic neurons that project to the striatum. It is these neurons that undergo degeneration in Parkinson's Disease. MPTP acts as a specific neurotoxin for these neurons, and the aim was to determine whether MPTP-induced nerve degeneration could be ameliorated by Dexanabinol at 10 (D-10), 20 (D-20) or 30 (D-30) mg/kg, or 2 injections of Dexanabinol at 20mg/kg (D-20×2) relative to vehicle alone (V).
The rescue effect of the various treatments was calculated by comparing the number of the TH-IR cells in each group relative to that in animals treated with MPTP alone, which was arbitrarily assigned a value of zero.

## CCCCCCC(C)(C)c1cc(O)c2c(c1)OC(C)(C)[C@H]1CC=C(CO)CC21 (stereo partly drawn) [211,007-000, 1,1 dimethyl heptyl-(3S,4S)-7-hydroxy-Δ^6-tetrahydrocannabinol]
[1]
  cannabimimetic activity (in words): inactive as a cannabimimetic
[2]; 10 mg/kg IP
  TH-IR SNpc (rescue effect relative to MPTP alone = 0): −7.85
[2]; 20 mg/kg IP
  TH-IR SNpc (rescue effect relative to MPTP alone = 0): 28.52
[2]; 30 mg/kg IP
  TH-IR SNpc (rescue effect relative to MPTP alone = 0): 22.73
[2]; 2 injections at 20 mg/kg
  TH-IR SNpc (rescue effect relative to MPTP alone = 0): 8.5
